Test results as given in patent US7198945B2, “Cell having modified cell membrane” (Teruyuki Nagamune, priority 2001, dated 2007).
Entries after “also recorded” stand apart in the source; their conditions may differ.

Key:
[1] = tested on: mouse fibroblast cell line NIH3T3; experiment: Anchoring of conjugates to cell membranes, observed by confocal laser scanning microscope; details: for Anchoring to cell surface: Mouse fibroblasts NIH3T3, 37° C. for 5 min, confocal microscope, 1000 magnifications
Description: Mouse fibroblasts NIH3T3 were cultured at 37° C. under 5% CO2 concentration using Dulbecco's Modified Eagle's Medium supplemented with 10% fetal calf serum and Glass bottom Microwell Dishes (35 mm dish, Uncoated, No. 0 Coverslip). The cells were cultured until the culture was approximately 80% confluent for 20 hours to 45 hours. […] The Glass bottom Microwell Dishes with NIH3T3 cells attached thereto were rinsed with 2 mL of phosphate buffered saline (the same as described above) which was subjected to filtration sterilization beforehand. Then, 0.1 mL of the polyethylene oxide oleylether-biotin conjugate solution was added to the NIH3T3 cells attached on the glass surface and a reaction was performed at 37° C. for 5 min. After the reaction, the cells were washed twice with 2 mL of phosphate buffered saline. Then, 0.1 mL of phosphate buffered saline containing 6.7 nM streptavidin and fluorescein conjugate (Molecular Probes; Cat# S-869) (hereinafter referred to as “fluorescein-labeled streptavidin”) was added to the cells, followed by incubation at 37° C. for 20 min.
The modification of the cell membranes was verified by observing the cells under a confocal laser scanning microscope (Leica).

[2] = tested on: suspended cells (32D, Ba/F3 and 9E10 cells); experiment: Anchoring of EGFP conjugate to suspended cells, flow cytometer; format: cell-based, mouse; set-up: Anchoring to cell surface: key to the marks not given beside the values
Description: (§1) Mouse hybridoma 9E10 was cultured at 37° C. under 5% CO2 concentration using RPMI 1640 media (“Nissui” powder, NISSUI PHARMACEUTICAL CO., LTD., Cat# 05918) supplemented with 10% fetal calf serum. […] 32D, Ba/F3 and 9E10 cells (hereinafter, generically called as “suspended cells”) were centrifuged to collect 1×10^6 cells. Each of the cell was centrifuged for washing with 13 mL of phosphate buffered saline. […] Then the cells were centrifuged for washing once with 13 mL of phosphate buffered saline, and then 1 mL of phosphate buffered saline was added to each cell pellet.
(§2) Respective treated cell suspensions were observed under a flow cytometer (Coulter, EPICS-C). […] Thus, it was verified that the polyethylene oxide oleylether-EGFP can be anchored to suspended cells.

[3] = tested on: mouse myeloid cell line 32D; experiment: Flow cytometer fluorescence intensity of treated suspended cells; format: cell-based; details: 37° C. for 5 min
Description: as §1, §2

mouse hybridoma 9E10 = experiment: as above; format: cell-based; details: 37° C. for 5 min
Description: as §1, §2

[4] = tested on: mouse pro-B cell line Ba/F3; experiment: as above; format: cell-based; details: 37° C. for 5 min
Description: as §1, §2

[5] = tested on: Chinese hamster ovarian follicle cell line CHO; experiment: Anchoring of EGFP conjugate to cell membranes, observed by confocal laser scanning microscope; format: cell-based; set-up: Anchoring to cell surface: key to the marks not given beside the values
Description: Therefore, it was verified that the conjugate can be anchored to cells other than mouse cells.

[6] = NIH3T3, confocal laser scanning microscope

Row | Molecule | fluorescence on cell membranes / anchoring (result in words) [1, 6] | Anchoring to cell surface [1] | other results
1 | NCCOCCOCCNC(=O)CCCC[C@@H]1SC[C@@H]2NC(=O)N[C@@H]21 [biotin-NH2, Biotin-PEO-Amine, reference compound] | no fluorescence from fluorescein was observed |  | 
2 | Amino Polyethylene Oxide Oleylether (n=90, Average Molecular Weight of 4400)-biotin Conjugate [Example 12] | remain unchanged and still excellent | ++ | 
3 | Fluorescent-Labeled (Fluorescein)-Polyethylene Oxide-Modified Dioleoyl Phosphatidyl Ethanolamine [Example 11] | Fluorescence from fluorescein was observed on the cell membranes of all the NIH3T3 cells | ++ | 
4 | Oleic Acid-biotin [Example 15, reference compound] | no fluorescence from fluorescein was observed | − | 
5 | Polyethylene Oxide Nonylphenyl Ether (n=40, Average Molecular Weight of 2160)-biotin Conjugate [Example 17, reference compound] | no fluorescence from fluorescein was observed | − | 
6 | Polyethylene Oxide Oleylether (n=15; Average Molecular Weight of 1100)-biotin Conjugates [Example 7] |  | ++ | 
7 | Polyethylene Oxide Oleylether (n=40; Average Molecular Weight of 2250)-biotin Conjugates [Example 8] |  | ++ | 
8 | Polyethylene Oxide Oleylether (n=90, Average Molecular Weight of 4400)-Green Fluorescent Protein EGFP Conjugate [Example 4] | anchored to the cell membranes | ++ | Anchoring to cell surface ([2]; Suspended cell): ++; fluorescence intensity of cells compared to cells treated only with EGFP (result in words) ([2]; suspended cells, flow cytometer): an increased number of the cells with a stronger fluorescence intensity was observed; relative value of fluorescence intensity of cells [3]: 30.1; relative value of fluorescence intensity of cells (mouse hybridoma 9E10): 49.6; relative value of fluorescence intensity of cells [4]: 36.7; fluorescence from EGFP on cell membranes (result in words) ([5]; CHO cells, confocal laser scanning microscope): fluorescence from EGFP was observed on the cell membranes of all of the CHO cells; Anchoring to cell surface ([5]; Chinese hamster ovarian follicle cells CHO, confocal microscope): ++
9 | Polyethylene Oxide Oleylether (n=90, Average Molecular Weight of 4400)-biotin Conjugate [Example 2] |  | ++ | time in which conjugates were anchored to all of the cell membranes ([1]; NIH3T3, 37° C.): ≤ 5 min; fluorescence on cell membranes / anchoring (result in words) ([1]; NIH3T3; confocal laser scanning microscope; average molecular weight of 4400)-biotin co): fluorescence deriving from fluorescein was observed on the cell membranes of all of the cells in the field; also recorded: fluorescence from fluorescein was specifically observed only in the cell membranes; binding of biotin to streptavidin after anchoring ([1]; NIH3T3, fluorescein-labeled streptavidin): not inhibited
10 | Polyethylene Oxide Oleylether (n=180; Average Molecular Weight of 8400)-biotin Conjugates [Example 9] |  | ++ | 
11 | Polyethylene Oxide Stearyl Ether (n=15: Average Molecular Weight of 1100)-biotin Conjugates [Example 10] | fluorescence from fluorescein was observed on the cell membranes of the NIH3T3 cells | + | 
12 | polyethylene oxide oleylether succinate [reference compound] | no fluorescence from fluorescein was observed |  | 
